Molecules are shown by their SMILES.

2 compounds from patent publication US20130204033A1, “ANTIPROLIFERATIVE COMPOUNDS, CONJUGATES THEREOF, METHODS THEREFOR, AND USES THEREOF” (Medarex, Inc., priority 2009, published 2013) can be followed below.

Assay type in all cases: cell-based, human
The test system of one experiment is CEM-Cl. In words: ATP luminescence proliferation assay, CEM-C1. The conditions noted are these: Homo sapiens, CEM/C1, 72 h, read-out: EC50 CEM-C1 (72 h), ATP luminescence, CEM-C1, 72 h incubation. The method, boiled down:
(§1)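 Free compounds and conjugates tested as 1:3 dilution series on cells seeded 3 h earlier at 1.0×10^3/well. Exposure 48, 72 or 96 h; ATP-based luminescence; EC50 taken at 50% proliferation reduction.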

The subject of experiment [1] is OVCAR3. Nature of the experiment: ATP luminescence proliferation assay, OVCAR3. To be noted: Homo sapiens, OVCAR-3, 48 h, read-out: EC50 OVCAR3 (48 h), ATP luminescence, OVCAR3, 48 h incubation. An outline of the steps:
as §1

The subject of another experiment is NCI-H460. In words: ATP luminescence proliferation assay, NCI-H460. The conditions noted are these: Homo sapiens, NCI-H460, 72 h, read-out: EC50 NCI-H460 (72 h), ATP luminescence, NCI-H460, 72 h incubation. The method, boiled down:
as §1

The next experiment has as its system HPAC. Nature of the experiment: ATP luminescence proliferation assay, HPAC. To be noted: Homo sapiens, 72 h, read-out: EC50 HPAC (72 h), ATP luminescence, HPAC, 72 h incubation. The method, boiled down:
as §1

In the next experiment the test system is ZR-75. In words: ATP luminescence proliferation assay, ZR-75. The conditions noted are these: Homo sapiens, ZR75, 48 h, read-out: EC50 ZR-75 (48 h), ATP luminescence, ZR-75, 48 h incubation. The method, boiled down:
as §1

Another experiment deals with PC3. Nature of the experiment: 3H thymidine proliferation assay, PC3. To be noted: Homo sapiens, PC-3, read-out: EC50, PC3, 3H thymidine method, 72 h incubation. An outline of the steps: (§2)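 Cells seeded at 1.0×10^4 cells/well for 3 h, then exposed to 1:3 serial dilutions of free compounds or conjugates for 72 h. 1.0 μCi ^3H-thymidine per well was added for the last 24 h, and incorporation was read by scintillation counting. EC50 is the concentration reducing proliferation by 50%.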

Another experiment concerns SK-BR3. In words: 3H thymidine proliferation assay, SK-BR3. The conditions noted are these: Homo sapiens, SK-BR-3; 3H thymidine method, 72 h incubation. The method, boiled down: as §2
Another experiment relates to Raji. In words: 3H thymidine proliferation assay, Raji. The conditions noted are these: Homo sapiens, Raji, read-out: EC50, Raji, 3H thymidine method, 72 h incubation. The method, boiled down:
as §2

The test system of another experiment is 786-O. In words: 3H thymidine proliferation assay, 786-O. To be noted: Homo sapiens, 786-0, read-out: EC50, 786-O, 3H thymidine method, 72 h incubation. An outline of the steps:
as §2

The next experiment deals with RPMI-8226. Nature of the experiment: 3H thymidine proliferation assay, RPMI-8226. The conditions noted are these: Homo sapiens, RPMI-8226, read-out: EC50, RPMI-8226, 3H thymidine method, 72 h incubation. The method, boiled down:
as §2

The test system of experiment [2] is HL-60. In words: ATP luminescence proliferation assay, HL-60. The conditions noted are these: Homo sapiens, HL-60, 48 h, read-out: EC50 HL-60 (48 h), ATP luminescence, HL-60, 48 h incubation. The method, boiled down: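 Read-out: luminescent ATP cell viability after 48, 72 or 96 h incubation, as noted, with 1:3 serial dilutions of unconjugated compounds or their conjugates. Plating was 1.0×10^3 cells/well, 3 h before dosing. EC50 = concentration giving 50% inhibition of proliferation.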

A further experiment has as its system HCT-15. In words: ATP luminescence proliferation assay, HCT-15. To be noted: Homo sapiens, HCT-15, 72 h, read-out: EC50 HCT-15 (72 h), ATP luminescence, HCT-15, 72 h incubation. The method, boiled down: as §1
A further experiment concerns SW-620. Nature of the experiment: ATP luminescence proliferation assay, SW-620. The conditions noted are these: Homo sapiens, SW-620, 96 h, read-out: EC50 SW-620 (96 h), ATP luminescence, SW-620, 96 h incubation. The method, boiled down:
as §1

The test system of the next experiment is UO-31. Nature of the experiment: 3H thymidine proliferation assay, UO-31. The conditions noted are these: Homo sapiens, UO-31, read-out: EC50, UO-31, 3H thymidine method, 72 h incubation. An outline of the steps:
as §2

The test system of experiment [3] is HL-60. Nature of the experiment: 3H thymidine proliferation assay, HL-60. The conditions noted are these: Homo sapiens, HL-60, read-out: EC50, HL-60, 3H thymidine method, 72 h incubation. An outline of the steps: as §2
Another experiment has as its system SW-480. Nature of the experiment: ATP luminescence proliferation assay, SW-480. The conditions noted are these: Homo sapiens, SW480, 96 h, read-out: EC50 SW480 (96 h), ATP luminescence, SW480, 96 h incubation. The method, boiled down: as §1
Experiment [4] relates to OVCAR3. Nature of the experiment: 3H thymidine proliferation assay, OVCAR3. The conditions noted are these: Homo sapiens, OVCAR-3, read-out: EC50, OVCAR3, 3H thymidine method, 72 h incubation. An outline of the steps:
as §2

A further experiment has as its system U-87 MG. Nature of the experiment: ATP luminescence proliferation assay, U-87 MG. To be noted: Homo sapiens, 72 h, read-out: EC50 U-87 MG (72 h), ATP luminescence, U-87 MG, 72 h incubation. An outline of the steps:
as §1

Take `CC[C@H](C)[C@H](NC(=O)[C@H]1CCCCN1C)C(=O)N(C)[C@H](C[C@@H](OC(C)=O)c1nc(C(=O)N[C@@H](Cc2ccc(N)cc2)CC(C)C(=O)O)cs1)C(C)C` (stereo partly drawn) [Compound 36]: the EC50 was 40 nM in the experiment on CEM-Cl; above 300 nM in the experiment on OVCAR3 [1]; 16 nM with NCI-H460; 2.9 nM with HPAC; above 300 nM in the experiment with ZR-75; 66 nM in the experiment with PC3. The EC50 in the experiment on SK-BR3 was above 100 nM; with Raji it was 15 nM; in the experiment with 786-O, above 100 nM; with RPMI-8226, 48 nM; in the experiment on HL-60 [2], 114 nM; with HCT-15 it was 96 nM. Moreover, the EC50 with SW-620 is 45 nM; in the experiment with UO-31, above 100 nM; with HL-60 [3] it was 107 nM; in the experiment on SW-480, 81 nM; in the experiment with OVCAR3 [4], above 100 nM; in the experiment on U-87 MG, 37 nM.

`CC[C@H](C)[C@H](NC(=O)[C@H]1CCCCN1C)C(=O)N(COC(=O)CC(C)C)[C@H](C[C@@H](OC(C)=O)c1nc(C(=O)N[C@@H](Cc2ccc(N)cc2)CC(C)C(=O)O)cs1)C(C)C` (stereo partly drawn) [Compound 54]: the EC50 with CEM-Cl was 1.2 nM; in the experiment with OVCAR3 [1], above 100 nM; in the experiment on NCI-H460, 1.6 nM; in the experiment on HPAC, 0.96 nM; in the experiment with ZR-75, 9.6 nM; in the experiment on PC3, 0.82 nM. Further, the EC50 came out at 1.1 nM in the experiment on SK-BR3; 0.2 nM in the experiment on Raji; 6.9 nM in the experiment on 786-O; 0.36 nM in the experiment with RPMI-8226; 2.5 nM in the experiment with HL-60 [2]; 2.6 nM in the experiment with HCT-15. Besides, the concentration for a half-maximal effect (EC50) in the experiment with SW-620 was determined as 1.1 nM; in the experiment with UO-31, 1.3 nM; in the experiment with HL-60 [3] it was 0.53 nM; in the experiment with SW-480, 1.6 nM; in the experiment on OVCAR3 [4] it was 3.9 nM; in the experiment on U-87 MG it was 1.6 nM.

In general, EC50 refers to the concentration giving half of the maximal effect.
